# Data: patent publication US9968566B2, “Pharmaceutical composition for prophylaxis and/or treatment of corneal and conjunctival diseases or presbyopia containing stilbene compound as active ingredient” (KEIO UNIVERSITY, priority 2014, dated 2018)
# Values joined by “and” are separate entries in the source; they are usually repeats but may differ in a detail not shown here. Equal entries are not always repeated.
# Experiments:
# [1] = Measurement of radical scavenging activity (galvinoxyl radical, stopped flow method); type: biochemical; settings: acetonitrile, deaerated with argon, absorbance at 428 nm
# Method: Unlike active oxygen, a galvinoxyl radical (GO•), which is a relatively stable organic oxygen radical having a characteristic peak absorption at 428 nm, may be used to perform kinetic analysis in terms of the radical scavenging ability of antioxidants using ultraviolet visible spectroscopy.
# In this experiment, the radical scavenging rate was measured by a stopped flow method. The following reagent was used: • Acetonitrile (Nacalai Tesque, Inc., 00433-95); and • Galvinoxyl Radical (Aldrich, G30-7).
# A solution of GO• in acetonitrile (about 2.4×10^−6 M) was bubbled with argon for 7 minutes to remove molecular oxygen. […] Subsequently, the acetonitrile solutions of GO• and the compounds were simultaneously mixed to measure changes in the peak absorption of GO• (at 428 nm) over time by a stopped flow method.
# Under conditions in which the concentration of each antioxidant is 10 times or more than that of GO• ([Antioxidant agent]>10[GO•]), the reduction in the absorbance at 428 nm derived from GO• follows the pseudo-first-order kinetics (equation (1)) with respect to the concentration of each antioxidant agent (antioxidant): −d[GO•]/dt=kobs[GO•] […] Integration of both sides of equation (1) leads to equation (2): ln([GO•]/[GO•]0)=−kobst (2), wherein [GO•]o is a concentration of GO• when t=0. […]
# [2] = system: keratoconjunctival epithelial damage caused by dry eye; assay: Therapeutic efficacy test using smoking rat (Example 3): tear volume and fluorescein staining score; type: in vivo, Sprague-Dawley rats; settings: smoking rats, 300 μM PBS solution, 5 μL instilled 4 times per day for 11 days; for average fluorescein score (fluorescent staining score): smoking group 3.7±1.0, non-smoking 0.8±1.0; for tear volume (cotton thread test, length of wet portion): smoking group 10.0±5.0, non-smoking 14.0±9.1
# Method: In this experiment, both eyes of each animal were used. The same drug solution was administered to both eyes of each animal, and a comparison was made among groups.
# Six-week-old male Sprague-Dawley rats were subjected to smoking treatment to develop dry-eye, presbyopia models.
# Specifically, a treatment in which mainstream smoke (300 mL) was added to a rat-containing chamber 6 times at 30-minute intervals was performed for 12 days to induce keratoconjunctival epithelial damage. […] Each group consisted of 4 animals (8 eyes).
# After the 11-day smoking treatment, the body weight, tear volume, fluorescent staining score, and crystalline lens hardness were measured.
# To determine the tear volume, tears accumulated in the cornea of rat were measured in accordance with the cotton thread test. Specifically, after the rats were anesthetized with ocular instillation of oxybuprocaine hydrochloride, a cotton thread was inserted between the palpebra and eyeball for 60 seconds, and tears were collected. The tear volume was assessed by measuring the length (mm) of the wet portion in the cotton thread.
# After the completion of ocular instillation, a damaged portion in corneal epithelium was stained with a fluorescent dye (fluorescein). Then, the degree of corneal epithelial damage was assessed based on the following criteria by scoring each section of the entire cornea, which was divided into a total of 9 sections, i.e., upper, middle, and lower, and left, center, and right sections, and calculating the total value. Thereafter, the score values were compared among the groups for analysis. For statistical analysis, a significant difference test was performed by using the Dunnett method in terms of each group with respect to the smoking group. For unbiased evaluation, the content of the drug solution administered to each group was blinded from the initiation of ocular instillation to the scoring of the corneal epithelial damage, and collated after scoring.
# Evaluation Criteria for Scoring of Fluorescein Staining of Corneal Epithelium
# • 0: not stained (no punctate fluorescence) • 1: weak punctate fluorescence • 2: relatively intense punctate fluorescence • 3: strong punctate fluorescence The crystalline lens hardness was measured by combining an electronic weighing scale and height gauge. A crystalline lens whose minor axis length had been previously measured was placed on an electronic weighing scale, and the weight was set to 0. The handle of a height gauge was used above the crystalline lens to allow the end portion to be in contact with the crystalline lens. Further using the handle, the end portion was lowered about 5 to 10% of the minor axis length to apply a pressure on the crystalline lens. The change in the weight at this time was measured with the electronic weighing scale, and the weight was divided by the moving distance measured with the height gauge. The resulting value was considered to be hardness. A larger value represents more hardness.
# For statistical analysis of the body weight, tear volume, and crystalline lens hardness, a significant difference test was performed using the Dunnett method in terms of each group with respect to the smoking group.
# [3] = Electron spin resonance (ESR) measurement test, amount of hydroxyl radical; type: biochemical; settings: 5 μM, 50 μM and 500 μM added to standard solution; activity order R<DR<DHR
# Method: (§1) Resveratrol (R), as well as dimethyl resveratrol (DR) and dimethylhydroxy resveratrol (DHR), which are compounds of the present invention, were added to radicals serving as standard substances, and the amounts of remaining tyrosine radicals and hydroxyl radicals were assessed. Specifically, a standard solution comprising a 50 mM NaPi buffer (pH 7.4), 10 mM DMPO, 1.6 mM myoglobin, and 1 mM H2O2 was prepared using myoglobin as a tyrosine radical. Further, a standard solution comprising a 50 mM NaPi buffer (pH 7.4), 10 mM DMPO, 0.1 mM Fe^2+-EDTA, and 1 mM H2O2 was prepared using Fe^2+-EDTA as a hydroxyl radical. […] The ESR was set as follows: microwave power: 10 mW; adjusted frequency: 100 KHz; adjusted magnetic field: 0.1 G; receiver gain: 1000; and time constant: 0.3 s. FIGS. 1(A) and 1(B) show the results.
# [4] = Electron spin resonance (ESR) measurement test, amount of tyrosine radical; type: biochemical; settings: 5 μM, 50 μM and 500 μM added to standard solution; activity order R<DR<DHR
# Method: as §1
# crystalline lens = assay: Smoking rat presbyopia model (Example 3): crystalline lens hardness; type: in vivo, Sprague-Dawley rats; settings: smoking rats, 300 μM PBS solution, 5 μL instilled 4 times per day for 11 days; smoking group 1.04±0.05, non-smoking 0.75±0.04
# Method: Six-week-old male Sprague-Dawley rats were subjected to smoking treatment to develop dry-eye, presbyopia models. Specifically, a treatment in which mainstream smoke (300 mL) was added to a rat-containing chamber 6 times at 30-minute intervals was performed for 12 days to induce keratoconjunctival epithelial damage. […] Each group consisted of 4 animals (8 eyes). After the 11-day smoking treatment, the body weight, tear volume, fluorescent staining score, and crystalline lens hardness were measured. • 0: not stained (no punctate fluorescence) • 1: weak punctate fluorescence • 2: relatively intense punctate fluorescence • 3: strong punctate fluorescence The crystalline lens hardness was measured by combining an electronic weighing scale and height gauge. A crystalline lens whose minor axis length had been previously measured was placed on an electronic weighing scale, and the weight was set to 0. The handle of a height gauge was used above the crystalline lens to allow the end portion to be in contact with the crystalline lens. Further using the handle, the end portion was lowered about 5 to 10% of the minor axis length to apply a pressure on the crystalline lens. The change in the weight at this time was measured with the electronic weighing scale, and the weight was divided by the moving distance measured with the height gauge. The resulting value was considered to be hardness. A larger value represents more hardness. For statistical analysis of the body weight, tear volume, and crystalline lens hardness, a significant difference test was performed using the Dunnett method in terms of each group with respect to the smoking group.
# [5] = Stability test at 25° C. and 60% RH, amount by HPLC; type: physicochemical; settings: for amount of compound remaining, single runs: first/second/third time
# Method: After a constant period of time, the amount of each compound was measured by HPLC to evaluate the stability. The amount of the compound was calculated in accordance with: (The amount of compound after a constant period of time)/(the amount of compound at the time when the test was initiated)×100(%).
# [6] = system: keratoconjunctival epithelial damage caused by dry eye; assay: Therapeutic efficacy test using smoking rat (Example 5), comparison with Diquas; type: in vivo, Sprague-Dawley rats; settings: for body weight: smoking rats after 11-day treatment, instilled 5 μL 4 times per day, smoking group 280.0±5.8; for average fluorescein score (fluorescent staining score) / tear volume (cotton thread test): smoking rats, DR 300 μM in PBS or Diquas 3%, 5 μL 4 times per day for 11 days; for average fluorescein score (fluorescent staining score): smoking group 4.6±1.2, non-smoking 1.2±1.2; for tear volume (cotton thread test): smoking group 11.3±9.0, non-smoking 17.6±9.1
# Method: In this experiment, both eyes of each animal were used. The same drug solution was administered to both eyes of each animal, and a comparison was made among groups. Six-week-old male Sprague-Dawley rats were subjected to smoking treatment to develop dry-eye models. Specifically, a treatment in which mainstream smoke (300 mL) was added to a rat-containing chamber 6 times at 30-minute intervals was performed for 12 days to induce a keratoconjunctival epithelial damage. […] The tear volume and fluorescent staining score were measured in accordance with the method described in Example 3. For statistical analysis, a significant difference test was performed using the Dunnett method in terms of each group with respect to the smoking group.
# corneal epithelium = assay: Safety test: hematoxylin-eosin staining of rat cornea; type: in vivo; settings: 300 μM PBS solution, treated for one week
# Source text: FIGS. 8(A) and 8(B) show photographs of each tissue section.
structure (smiles),measurement,setting,value
"C/C(=C(/C)c1ccc(O)c(O)c1)c1cc(O)cc(O)c1 [DHR, (E)-4-[3-(3,5-dihydroxyphenyl)but-2-en-2-yl]benzene-1,2-diol]",radical scavenging activity (constant kHT of rate of hydrogen transfer to GO•),[1],2300 M⁻¹ s⁻¹
same,average fluorescein score (fluorescent staining score),[2],1.5±0.5
same,"tear volume (cotton thread test, length of wet portion)",[2],13.8±11.1 mm
same,"radical generation (amount of hydroxyl radical, ESR)",[3],reduced radical generation in a concentration-dependent manner
same,"radical generation (amount of tyrosine radical, ESR)",[4],reduced radical generation in a concentration-dependent manner
same,crystalline lens elasticity (hardness; larger value = harder),crystalline lens,0.75±0.05
"C/C(=C(/C)c1cc(O)cc(O)c1)c1ccc(O)cc1 [DR, (E)-5-[3-(4-hydroxyphenyl)but-2-en-2-yl]benzene-1,3-diol]",radical scavenging activity (constant kHT of rate of hydrogen transfer to GO•),[1],0.96 M⁻¹ s⁻¹
same,average fluorescein score (fluorescent staining score),[2],2.3±0.5
same,"tear volume (cotton thread test, length of wet portion)",[2],8.3±4.9 mm
same,"radical generation (amount of hydroxyl radical, ESR)",[3],reduced radical generation in a concentration-dependent manner
same,"radical generation (amount of tyrosine radical, ESR)",[4],reduced radical generation in a concentration-dependent manner
same,"amount of compound remaining, average",[5]; 168 h,99%
same,"amount of compound remaining, average",[5]; 336 h,98%
same,"amount of compound remaining, average",[5]; 504 h,96%
same,"amount of compound remaining, average",[5]; 672 h,94%
same,"amount of compound remaining, average","[5]; buffer, 24 h, 10 mM",99%
same,"amount of compound remaining, average","[5]; buffer, 48 h, 10 mM",96%
same,"amount of compound remaining, average","[5]; buffer, 72 h, 10 mM",94%
same,"amount of compound remaining, average","[5]; buffer, 168 h, 10 mM",88%
same,"amount of compound remaining, average","[5]; buffer, 336 h, 10 mM",76%
same,crystalline lens elasticity (hardness; larger value = harder),crystalline lens,0.86±0.06
same,body weight,[6],271.0 ± 7.5 g
same,average fluorescein score (fluorescent staining score),[6],2.1±0.8
same,tear volume (cotton thread test),[6],19.3±11.2 mm
same,morphological effects on the corneal epithelium (HE staining),corneal epithelium,did not show morphological effects on the corneal epithelium
"Oc1ccc(/C=C/c2cc(O)cc(O)c2)cc1 [Resveratrol, trans-1,2-(3,4′,5-trihydroxydiphenyl)ethylene, reference compound]","tear volume (cotton thread test, length of wet portion)",[2],6.9±4.3 mm
same,"radical generation (amount of hydroxyl radical, ESR)",[3],reduced radical generation in a concentration-dependent manner
same,"radical generation (amount of tyrosine radical, ESR)",[4],reduced radical generation in a concentration-dependent manner
same,"amount of compound remaining, average","[5]; 10 mM solution (10% DMSO in water), 1 week, 25° C. 60% RH, average of three runs",82%
same,"amount of compound remaining, single runs","[5]; 10 mM solution (10% DMSO in water), 1 week, 25° C. 60% RH",80% and 82% and 85%
same,"amount of compound remaining, average","[5]; 10 mM solution (10% DMSO in water), 2 weeks, 25° C. 60% RH, average of three runs",64%
same,"amount of compound remaining, single runs","[5]; 10 mM solution (10% DMSO in water), 2 weeks, 25° C. 60% RH",59% and 65% and 68%
same,"amount of compound remaining, average","[5]; 10 mM solution (10% DMSO in water), 1 day, 25° C. 60% RH, average of three runs",98%
same,"amount of compound remaining, single runs","[5]; 10 mM solution (10% DMSO in water), 1 day, 25° C. 60% RH",98% and 99% and 96%
same,"amount of compound remaining, average","[5]; 10 mM solution (10% DMSO in water), 2 days, 25° C. 60% RH, average of three runs",95%
same,"amount of compound remaining, single runs","[5]; 10 mM solution (10% DMSO in water), 2 days, 25° C. 60% RH",95% and 96%
same,"amount of compound remaining, average","[5]; 10 mM solution (10% DMSO in water), 3 days, 25° C. 60% RH, average of three runs",91%
same,"amount of compound remaining, single runs","[5]; 10 mM solution (10% DMSO in water), 3 days, 25° C. 60% RH",90% and 93%
same,"amount of compound remaining, average","[5]; solid, 1 week, 25° C. 60% RH, average of three runs",99%
same,"amount of compound remaining, single runs","[5]; solid, 1 week, 25° C. 60% RH",100% and 101% and 97%
same,"amount of compound remaining, average","[5]; solid, 2 weeks, 25° C. 60% RH, average of three runs",95%
same,"amount of compound remaining, single runs","[5]; solid, 2 weeks, 25° C. 60% RH",96% and 94%
same,"amount of compound remaining, average","[5]; solid, 3 weeks, 25° C. 60% RH, average of three runs",91%
same,"amount of compound remaining, single runs","[5]; solid, 3 weeks, 25° C. 60% RH",91% and 90% and 92%
same,"amount of compound remaining, average","[5]; solid, 4 weeks, 25° C. 60% RH, average of three runs",86%
same,"amount of compound remaining, single runs","[5]; solid, 4 weeks, 25° C. 60% RH",88% and 86% and 85%
same,crystalline lens elasticity (hardness; larger value = harder),crystalline lens,0.87±0.06
"O=c1ccn([C@@H]2O[C@H](COP(=O)(O)OP(=O)(O)OP(=O)(O)OP(=O)(O)OC[C@H]3O[C@@H](n4ccc(=O)[nH]c4=O)[C@H](O)[C@@H]3O)[C@@H](O)[C@H]2O)c(=O)[nH]1 [diquafosol sodium, reference compound]",body weight,[6],273.8 ± 4.3 g
same,average fluorescein score (fluorescent staining score),[6],4.3±1.6
same,tear volume (cotton thread test),[6],11.0±6.5 mm
